System: pepper plants
Assay type: in vivo
Details: plants sprayed with oregano/sesame oil emulsion made with the emulsifier

Molecule | Phytotoxicity on pepper plants
CCCCCCCCCCCCOS(=O)(=O)[O-].[Na+] [SDS] | phytotoxicity
CCCCCCCC/C=C\CCCCCCCC(=O)OCCOCC(OCCO)C1OCC(OCCO)C1OCCO (stereo not shown) [Tween 80] | phytotoxicity
CCCCCCCCCCCCCCCCCC(=O)[O-].[Na+] [sodium stearate, Sodium Stearate] | very vital
Triton X 100 [Triton X100] | phytotoxicity
